How the values were obtained:
[1] = cited from earlier work; for Degree of Sweetness: sucrose per unit concentration Brix 1 defined as 1
[2] = target: T1, sweet taste receptor (T1R2/T1R3) (Homo sapiens, UniProt Q7RTX0+Q8TE23); assay: Sensory evaluation of remaining sweetness intensity of sweet substances with lactisole, relative to sucrose + lactisole; details: 100 ppm lactisole; solution 15-1 (12 w/v % sucrose + 100 ppm lactisole) = 100%; n=4
T1 sequence (Q8TE23 20-839): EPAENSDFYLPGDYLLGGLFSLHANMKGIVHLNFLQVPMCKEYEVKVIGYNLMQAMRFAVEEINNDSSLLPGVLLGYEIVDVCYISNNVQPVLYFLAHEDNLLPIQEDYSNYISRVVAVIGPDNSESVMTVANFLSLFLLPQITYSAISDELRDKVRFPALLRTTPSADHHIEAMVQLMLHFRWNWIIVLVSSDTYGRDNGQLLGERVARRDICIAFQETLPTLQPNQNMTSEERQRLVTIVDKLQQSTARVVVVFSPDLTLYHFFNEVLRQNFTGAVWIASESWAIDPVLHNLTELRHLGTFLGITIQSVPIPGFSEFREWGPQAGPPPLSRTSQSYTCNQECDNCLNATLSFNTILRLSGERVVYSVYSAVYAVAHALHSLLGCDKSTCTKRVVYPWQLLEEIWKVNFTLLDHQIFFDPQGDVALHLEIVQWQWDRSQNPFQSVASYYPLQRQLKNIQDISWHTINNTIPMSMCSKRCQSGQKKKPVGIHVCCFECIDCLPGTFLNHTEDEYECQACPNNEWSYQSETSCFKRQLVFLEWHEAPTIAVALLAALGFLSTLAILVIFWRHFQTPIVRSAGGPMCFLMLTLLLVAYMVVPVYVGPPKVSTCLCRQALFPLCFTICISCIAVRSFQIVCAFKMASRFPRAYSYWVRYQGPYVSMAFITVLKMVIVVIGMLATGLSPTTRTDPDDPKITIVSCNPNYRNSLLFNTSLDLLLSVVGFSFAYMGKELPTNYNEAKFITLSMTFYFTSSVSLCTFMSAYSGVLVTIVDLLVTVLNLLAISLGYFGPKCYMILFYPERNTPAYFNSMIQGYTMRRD
T1 sequence (Q7RTX0 21-852): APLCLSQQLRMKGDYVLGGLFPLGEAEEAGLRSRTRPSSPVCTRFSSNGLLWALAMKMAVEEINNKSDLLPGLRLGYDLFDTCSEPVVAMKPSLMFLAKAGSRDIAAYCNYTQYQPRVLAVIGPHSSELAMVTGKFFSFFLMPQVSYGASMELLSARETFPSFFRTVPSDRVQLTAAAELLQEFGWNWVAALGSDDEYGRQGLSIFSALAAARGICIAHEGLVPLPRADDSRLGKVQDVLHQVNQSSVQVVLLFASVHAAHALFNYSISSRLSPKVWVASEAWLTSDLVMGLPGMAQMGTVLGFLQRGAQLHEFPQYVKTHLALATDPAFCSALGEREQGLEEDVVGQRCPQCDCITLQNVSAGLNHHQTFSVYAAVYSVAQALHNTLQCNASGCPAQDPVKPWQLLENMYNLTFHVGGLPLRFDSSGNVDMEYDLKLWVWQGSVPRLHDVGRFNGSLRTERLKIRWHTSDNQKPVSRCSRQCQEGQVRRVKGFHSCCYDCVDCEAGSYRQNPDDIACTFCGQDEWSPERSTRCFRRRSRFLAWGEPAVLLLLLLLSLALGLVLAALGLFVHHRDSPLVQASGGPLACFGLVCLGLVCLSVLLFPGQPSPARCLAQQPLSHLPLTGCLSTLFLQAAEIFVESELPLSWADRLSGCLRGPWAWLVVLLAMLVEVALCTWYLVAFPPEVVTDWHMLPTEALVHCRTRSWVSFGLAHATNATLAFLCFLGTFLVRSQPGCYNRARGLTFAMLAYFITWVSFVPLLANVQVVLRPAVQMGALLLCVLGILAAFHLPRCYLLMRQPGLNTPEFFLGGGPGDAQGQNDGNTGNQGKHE
Source text: The sweetness intensity of each sample solution was scored by using VAS scale. […] When the value was 50% or more, the substance was considered to be a sucrose-like substance, the taste of which is close to that of sucrose; and when the value was less than 50%, the substance was considered to be a substance, the taste of which is far from that of sucrose.
Each sweet substance was blended so as to have an approximately equal degree of sweetness of 12 w/v % sucrose (corresponding to about Brix 12) while the known degree of sweetness of each sweet substance was used for calculation. […] The sweetness intensity of each sample solution was scored by using VAS scale. […] When the value was 50% or more, the substance was considered to be a sucrose-like substance, the taste of which is close to that of sucrose; and when the value was less than 50%, the substance was considered to be a substance, the taste of which is far from that of sucrose.
D-tagatose was blended so as to have an approximately equal degree of sweetness of 12 w/v % sucrose (corresponding to about Brix 12) while the known degree of sweetness of D-tagatose was used for calculation. […] The sweetness intensity of each sample solution was scored by using VAS scale. […]

[3] = target: T1, sweet taste receptor (T1R2/T1R3); assay: Sensory evaluation (spit test, VAS scale) of sweetness intensity with lactisole, relative to lactisole-free solution; assay type: in vivo; parameters: The sweet taste receptor is expressed naturally on the cell surface of each taste cell; from tissue; host or cells: tongue (taste cells) of living human panelists; spit test; details: remaining sweetness with 100 ppm lactisole expressed as sucrose solution
Procedure: Sensory-trained persons (5 subjects) were panelists who conducted evaluation. […] Note that each sample solution was designed to have an approximately equal sweetness intensity while the sweetness intensity of sucralose was estimated to be 600 times the sweetness intensity of sucrose. […] A spit test was conducted for the sensory evaluation. […] Note that each energy (kcal/100 ml) was calculated while the energy of sucrose was set to 4 kcal/g and the energy of sucralose was set to 0 kcal/g.
The sweetness intensity of each sample was scored by using VAS scale. The sweetness intensity of each solution was calculated as a relative value (%) while the sweetness intensity of the 12 w/v % sucrose solution was set to 100%.

Row | SMILES | Degree of Sweetness [1] | Relative sweetness intensity (%) [2] | sweetness level corresponding to sucrose solution [3] | sweetness intensity relative to the sweetness intensity of sucrose ([1]; estimate used to design sample solutions)
1 | O=C[C@H](O)[C@H](O)[C@H](O)[C@H](O)CO [Allose] | 0.8 | – | – | –
2 | O=C(CO)[C@H](O)[C@H](O)[C@H](O)CO [D-allulose] | 0.7 | – | – | –
3 | O=C(CO)[C@@H](O)[C@@H](O)[C@H](O)CO [D-tagatose] | 0.9 | ≥ 50% | – | –
4 | OC[C@H]1O[C@H](O[C@H]2[C@H](O)[C@@H](O)[C@H](O)O[C@@H]2CO)[C@H](O)[C@@H](O)[C@@H]1O [Maltose] | 0.4 | – | – | –
5 | OC[C@H]1O[C@H](O[C@]2(CCl)O[C@H](CCl)[C@@H](O)[C@@H]2O)[C@H](O)[C@@H](O)[C@H]1Cl [sucralose] | – | – | 0.144 w/v % | 600 times
6 | OC[C@H]1O[C@@](CO)(O[C@H]2O[C@H](CO)[C@@H](O)[C@H](O)[C@H]2O)[C@@H](O)[C@@H]1O [sucrose] | 1 | – | 2.0 w/v % | –

Reference: patent US20210084950A1, “SWEETENING COMPOSITION INDUCING SWEETNESS RESPONSE THROUGH MOLECULE OTHER THAN SWEET TASTE RECEPTOR (T1R2/T1R3)” (SUNTORY HOLDINGS LIMITED, priority 2018, published 2021)
